What was measured:
[1] = system: Eschericia coli (E. Coli) strain ATCC25922; assay: standard microdilution assay, minimum inhibitory concentration (MIC); assay type: cell-based; details: Escherichia coli
Procedure: (§1) The in vitro activity of the compounds of the present disclosure can be determined. Antimicrobial testing is typically performed to determine the minimum inhibitory concentration (MIC). Minimum inhibitory concentrations (MICs) are determined by the microdilution method in a final volume of 100 μl according to protocols outlined by The Clinical and Laboratory Standards Institute (CLSI). Performance standards for reference strains are assessed within the same experimental design to maintain quality control. See, for example, Clinical Laboratory Standards Institute: Methods for dilution antimicrobial susceptibility tests for bacteria that grow aerobically M7-A8. Approved Standard-Eighth Edition. Wayne, Pa.: CLSI; December 2008; and Clinical Laboratory Standards Institute: Performance Standards for Antimicrobial Susceptibility Testing M100-S20; Approved Standard-Twentieth Edition. Wayne, Pa.: CLSI; June 2010. The compounds of the present disclosure were tested for antimicrobial activity. The Compounds 1-149 were run against Eschericia coli (E. Coli) strain ATCC25922 and against Staphylococcus aureus (S. aureus) 11540 strain using a standard microdilution assay to determine minimum inhibitory concentrations (MICs). […] It will be recognized by one skilled in the art that the compounds can be assessed against other bacterial organisms and that the presentation of data for activity against Eschericia coli and Staphylococcus aureus are illustrative and in no way is intended to limit the scope of the present disclosure. The compounds of the present disclosure can be assayed against a range of other microorganisms depending upon the performance activity desired to be gathered. Furthermore, the “+” and “−” representation and the selection of a cutoff value of 16 micrograms/mL is also illustrative and in no way is intended to limit the scope of the present disclosure.

[2] = system: Staphylococcus aureus (S. aureus) 11540 strain; assay: as above; assay type: cell-based
Procedure: as §1

| MIC ([1]; ATCC25922, Table 2a) | MIC ([2]; Table 2a) | MIC ([1]; Table 2, strain ATCC25922) | MIC ([2]; Table 2, 11540 strain) | Structure (SMILES) |
| --- | --- | --- | --- | --- |
| ≤ 16 µg/mL | ≤ 16 µg/mL |  |  | N=C(N)NCC[C@H](CNC(=N)N)OCc1ccc(-n2cc3cc(-c4cc(CCC[C@@H](N)CF)cc(Cl)c4F)[nH]c3nc2=O)cc1 [Compound 162] |
|  |  | ≤ 16 µg/mL | ≤ 16 µg/mL | C=C[C@@H](CCNC(=N)N)NCc1ccc(-n2cc3cc(-c4cc([C@H]5CC[C@H](CN)O5)cc(Cl)c4F)[nH]c3nc2=O)cc1 [Compound 139] |
|  |  | ≤ 16 µg/mL | ≤ 16 µg/mL | C[C@H](N)CCCc1cc(Cl)c(F)c(-c2cc3cn(-c4ccc([C@@H]5CC(CCNC(=N)N)CC(CO)O5)cc4)c(=O)nc3[nH]2)c1 (stereo partly drawn) [Compound 88] |
|  |  | > 16 µg/mL | > 16 µg/mL | N=C(N)NCC[C@@H]1CN(c2ccc(-n3cc4cc(C5CCNC5)[nH]c4nc3=O)cc2)CCO1 (stereo partly drawn) [Compound 147] |
|  |  | ≤ 16 µg/mL | ≤ 16 µg/mL | C[C@H](N)CCCc1cc(Cl)c(F)c(-c2cc3cn(-c4ccc(CO[C@@H](CO)CCNC(=N)N)cc4)c(=O)nc3[nH]2)c1 [Compound 71] |
|  |  | ≤ 16 µg/mL | ≤ 16 µg/mL | CC(=N)NCC[C@H]1CC(N)C[C@H](c2ccc(-n3cc4cc(-c5cc(CCC[C@H](C)N)cc(Cl)c5F)[nH]c4nc3=O)cc2)O1 (stereo partly drawn) [Compound 120] |
|  |  | ≤ 16 µg/mL | ≤ 16 µg/mL | C[C@H](N)CCCc1cc(Cl)c(F)c(-c2cc3cn(-c4ccc([C@@H]5CC[C@H](CNC(=N)N)O5)cc4)c(=O)nc3[nH]2)c1 [Compound 70] |
|  |  | ≤ 16 µg/mL | ≤ 16 µg/mL | C[C@H](N)CCCc1cc(Cl)c(F)c(-c2cc3cn(-c4ccc([C@H]5CC(N)C[C@H](CCN)O5)cc4)c(=O)nc3[nH]2)c1 (stereo partly drawn) [Compound 127] |
|  |  | ≤ 16 µg/mL | ≤ 16 µg/mL | C[C@H](N)CCCc1cc(Cl)c(F)c(-c2cc3cn(-c4ccc([C@@H]5CCC[C@@H](CCNC(=N)C6CCC6)N5)cc4)c(=O)nc3[nH]2)c1 [Compound 84] |
|  |  | > 16 µg/mL | ≤ 16 µg/mL | C[C@H](N)CCCc1cc(Cl)c(F)c(-c2cc3cn(-c4ccc([C@@H]5C[C@@H](Nc6nccs6)C[C@@H](CCNC(=N)N)O5)cc4)c(=O)nc3[nH]2)c1 [Compound 123] |
|  |  | ≤ 16 µg/mL | ≤ 16 µg/mL | C[C@H](N)CCCc1cc(Cl)c(F)c(-c2cc3cn(-c4ccc(N5CCOC(CCNC(=N)N)C5)cc4)c(=O)nc3[nH]2)c1 (stereo partly drawn) [Compound 92] |
| ≤ 16 µg/mL | ≤ 16 µg/mL |  |  | COC[C@H](N)CCCc1cc(OC(F)(F)F)c(F)c(-c2cc3cn(-c4ccc(CO[C@H](CCNC(C)=N)CNC(C)=N)cc4)c(=O)nc3[nH]2)c1 [Compound 161] |
|  |  | ≤ 16 µg/mL | ≤ 16 µg/mL | C[C@H](N)CCCc1cc(Cl)c(F)c(-c2cc3cn(-c4ccc(CO[C@@H](CN)CCNC(=N)N)cc4)c(=O)nc3[nH]2)c1 [Compound 68] |
|  |  | ≤ 16 µg/mL | ≤ 16 µg/mL | C[C@H](N)CCCc1cc(Cl)c(F)c(-c2cc3cn(-c4ccc(CO[C@@H](CF)CCNC(=N)N)cc4)c(=O)nc3[nH]2)c1 [Compound 135] |
|  |  | ≤ 16 µg/mL | ≤ 16 µg/mL | CC(=N)NCC[C@H](CO)OCc1ccc(-n2cc3cc(-c4cc(CCC[C@H](C)N)cc(Cl)c4F)[nH]c3nc2=O)cc1 [Compound 72] |
|  |  | ≤ 16 µg/mL | ≤ 16 µg/mL | CC(=N)NCC[C@H]1CC(NC(C)=N)C[C@H](c2ccc(-n3cc4cc(-c5cc(CCC[C@H](C)N)cc(Cl)c5F)[nH]c4nc3=O)cc2)O1 (stereo partly drawn) [Compound 137] |
| ≤ 16 µg/mL | ≤ 16 µg/mL |  |  | CC(=N)NCC[C@H](CNC(=N)N)OCc1ccc(-n2cc3cc(-c4cc(CCC[C@H](C)N)cc(Cl)c4F)[nH]c3nc2=O)cc1 [Compound 171] |
|  |  | > 16 µg/mL | > 16 µg/mL | N=C(N)NCC[C@@H]1CN(c2ccc(-n3cc4cc(CCNC5CCNCC5)[nH]c4nc3=O)cc2)CCO1 [Compound 146] |
|  |  | ≤ 16 µg/mL | ≤ 16 µg/mL | C=C[C@@H](CCNC(=N)N)OCc1ccc(-n2cc3cc(-c4cc(CCC[C@H](C)N)cc(Cl)c4F)[nH]c3nc2=O)cc1 [Compound 132] |
|  |  | ≤ 16 µg/mL | ≤ 16 µg/mL | C=C[C@@H](CCNC(=N)N)NCc1ccc(-n2cc3cc(-c4cc([C@@H]5CC[C@H](CN)O5)cc(Cl)c4F)[nH]c3nc2=O)cc1 [Compound 142] |
|  |  | ≤ 16 µg/mL | > 16 µg/mL | N=C(N)NCC[C@@H]1C[C@H](CN)O[C@@H](c2ccc(-n3cc4cc(CCNC5CCNCC5)[nH]c4nc3=O)cc2)C1 [Compound 99] |
|  |  | > 16 µg/mL | > 16 µg/mL | C=C[C@@H](CCNC(=N)N)OCc1ccc(-n2cc3cc(CCNC4CCNCC4)[nH]c3nc2=O)cc1 [Compound 93] |
|  |  | ≤ 16 µg/mL | ≤ 16 µg/mL | C[C@H](N)CCCc1cc(Cl)c(F)c(-c2cc3cn(-c4ccc(CO[C@@H](C)CCNC(=N)N)cc4)c(=O)nc3[nH]2)c1 [Compound 66] |
|  |  | ≤ 16 µg/mL | ≤ 16 µg/mL | C=C[C@H]1C[C@@H](CCNC(=N)N)O[C@H](c2ccc(-n3cc4cc(-c5cc(CCC[C@H](C)N)cc(Cl)c5F)[nH]c4nc3=O)cc2)C1 [Compound 78] |
|  |  | ≤ 16 µg/mL | ≤ 16 µg/mL | CC(=N)NCC[C@@H]1CCC[C@@H](c2ccc(-n3cc4cc(CCNC5CCNCC5)[nH]c4nc3=O)cc2)N1 [Compound 117] |
|  |  | > 16 µg/mL | > 16 µg/mL | C[C@@H](CCNC(=N)N)OCc1ccc(-n2cc3cc(CCNC4CCNCC4)[nH]c3nc2=O)cc1 [Compound 112] |
|  |  | ≤ 16 µg/mL | ≤ 16 µg/mL | N=C(N)NCC[C@H](CNc1ncc[nH]1)OCc1ccc(-n2cc3cc(CCNC4CCNCC4)[nH]c3nc2=O)cc1 [Compound 104] |

The remaining lines, values behind:

| Structure (SMILES) | MIC ([1]; ATCC25922, Table 2a) | MIC ([2]; Table 2a) | MIC ([1]; Table 2, strain ATCC25922) | MIC ([2]; Table 2, 11540 strain) |
| --- | --- | --- | --- | --- |
| C[C@H](N)CCCc1cc(Cl)c(F)c(-c2cc3cn(-c4ccc([C@@H]5CCC[C@@H](CCNc6ncccn6)N5)cc4)c(=O)nc3[nH]2)c1 [Compound 12] |  |  | > 16 µg/mL | > 16 µg/mL |
| C[C@H](N)CCCc1cc(Cl)c(F)c(-c2cc3cn(-c4ccc([C@@H]5CCC[C@@H](CNCc6cccnn6)N5)cc4)c(=O)nc3[nH]2)c1 [Compound 6] |  |  | ≤ 16 µg/mL | ≤ 16 µg/mL |
| C[C@H](N)CCCc1cc(Cl)c(F)c(-c2cc3cn(-c4ccc(CN[C@H](CCNC(=N)N)CNc5nc6ccccc6[nH]5)cc4)c(=O)nc3[nH]2)c1 [Compound 37] |  |  | ≤ 16 µg/mL | ≤ 16 µg/mL |
| C[C@H](N)CCCc1cc(Cl)c(F)c(-c2cc3cn(-c4ccc([C@@H]5N[C@@H](CCNC(=N)N)CCO5)cc4)c(=O)nc3[nH]2)c1 [Compound 32] |  |  | ≤ 16 µg/mL | ≤ 16 µg/mL |
| C[C@H](N)CCCc1cc(Cl)c(F)c(-c2cc3cn(-c4ccc([C@@H]5CCC[C@@H](CCN6CCOC6=O)N5)cc4)c(=O)nc3[nH]2)c1 [Compound 20] |  |  | > 16 µg/mL | > 16 µg/mL |
| C[C@H](N)CCCc1cc(Cl)c(F)c(-c2cc3cn(-c4ccc([C@@H]5CCC[C@@H](CCNC6=NCCC6)N5)cc4)c(=O)nc3[nH]2)c1 [Compound 27] |  |  | ≤ 16 µg/mL | ≤ 16 µg/mL |
| C[C@H](N)CCCc1cc(Cl)c(F)c(-c2cc3cn(-c4ccc(CN[C@H](CCNC(=N)N)CS(N)(=O)=O)cc4)c(=O)nc3[nH]2)c1 [Compound 15] |  |  | ≤ 16 µg/mL | ≤ 16 µg/mL |
| C[C@H](N)CCCc1cc(Cl)c(F)c(-c2cc3cn(-c4ccc([C@@H]5CCC[C@@H](CCNC(=N)CCCCl)N5)cc4)c(=O)nc3[nH]2)c1 [Compound 28] |  |  | ≤ 16 µg/mL | ≤ 16 µg/mL |
| C[C@H](N)CCCc1cc(Cl)c(F)c(-c2cc3cn(-c4ccc(CN[C@H](CCNC(=N)N)CNc5ccc[nH]c5=O)cc4)c(=O)nc3[nH]2)c1 [Compound 62] |  |  | ≤ 16 µg/mL | ≤ 16 µg/mL |
| C[C@H](N)CCCc1cc(Cl)c(F)c(-c2cc3cn(-c4ccc(CN[C@H](CCNC(=N)N)CC(N)=O)cc4)c(=O)nc3[nH]2)c1 [Compound 61] |  |  | ≤ 16 µg/mL | ≤ 16 µg/mL |
| C[C@H](N)CCCc1cc(Cl)c(F)c(-c2cc3cn(-c4ccc(CN[C@H](CCNC(=N)N)CNc5ccon5)cc4)c(=O)nc3[nH]2)c1 [Compound 33] |  |  | ≤ 16 µg/mL | ≤ 16 µg/mL |
| C[C@H](N)CCCc1cc(Cl)c(F)c(-c2cc3cn(-c4ccc(CN[C@H](CCNC(=N)N)CNc5nc6cnccc6o5)cc4)c(=O)nc3[nH]2)c1 [Compound 56] |  |  | ≤ 16 µg/mL | ≤ 16 µg/mL |
| Cc1nc[nH]c1CNC[C@@H]1CCC[C@@H](c2ccc(-n3cc4cc(-c5cc(CCC[C@H](C)N)cc(Cl)c5F)[nH]c4nc3=O)cc2)N1 [Compound 11] |  |  | ≤ 16 µg/mL | ≤ 16 µg/mL |
| Cc1ccnc(NC[C@@H](CCNC(=N)N)NCc2ccc(-n3cc4cc(-c5cc(CCC[C@H](C)N)cc(Cl)c5F)[nH]c4nc3=O)cc2)c1 [Compound 14] |  |  | ≤ 16 µg/mL | ≤ 16 µg/mL |
| C[C@H](N)CCCc1cc(Cl)c(F)c(-c2cc3cn(-c4ccc(CN[C@@H](CCN)CCNC(=N)N)cc4)c(=O)nc3[nH]2)c1 [Compound 57] |  |  | ≤ 16 µg/mL | ≤ 16 µg/mL |
| C[C@H](N)CCCc1cc(Cl)c(F)c(-c2cc3cn(-c4ccc(CN[C@H](CCNC(=N)N)CNc5cccc6sccc56)cc4)c(=O)nc3[nH]2)c1 [Compound 36] |  |  | ≤ 16 µg/mL | ≤ 16 µg/mL |
| Cc1nc(NCC[C@H]2CCC[C@H](c3ccc(-n4cc5cc(-c6cc(CCC[C@H](C)N)cc(Cl)c6F)[nH]c5nc4=O)cc3)N2)[nH]c1C [Compound 41] |  |  | ≤ 16 µg/mL | ≤ 16 µg/mL |
| C[C@H](N)CCCc1cc(Cl)c(F)c(-c2cc3cn(-c4ccc(CN[C@H](CCNC(=N)N)CNc5cnccn5)cc4)c(=O)nc3[nH]2)c1 [Compound 48] |  |  | ≤ 16 µg/mL | ≤ 16 µg/mL |
